# Measurements as given in the OPERA property sets (Mansouri et al. 2018).
# Conditions: not given
Compound,boiling point [°C],log10 vapour pressure (mmHg),melting point [°C],log10 Koc (L/kg),ready biodegradability,log10 Koa,log10 biodegradation half-life (days),log10 Henry constant (atm·m³/mol)
O=C(Nc1ccccc1)Nc1ccccc1,262,-5.12,239,–,–,–,–,–
CC(=O)Oc1cccc2c1C(=O)c1c(OC(C)=O)cc(C(=O)O)cc1C2=O,–,–,218,–,–,–,–,–
Cc1cccc2c1ccc1cc(C(C)C)ccc12,390,–,101,–,–,–,–,–
CC(C)CCOc1ccc(NC(=S)Nc2ccc(OCCC(C)C)cc2)cc1,–,–,146,–,–,–,–,–
Nc1ccc(Cl)cc1N,229,–,76,–,–,–,–,–
N#CCCCC#N,286,-2.08,-29,–,–,–,–,–
C=CCCCc1ccccc1,201,–,–,–,–,–,–,–
COc1cc(OC)nc(N=C(O)NS(=O)(=O)c2c(Cl)nc3ccccn23)n1,–,-9.47,–,–,–,–,–,–
C=CC1CNC(=S)O1 (stereo not given),–,–,50,–,–,–,–,–
CNC(=O)Nc1ccc(OC)c(Cl)c1,–,–,–,1.84,–,–,–,–
CC(C)OP(=O)(OC(C)C)OC(C)C,219,–,–,–,–,–,–,–
CON(C)C(=O)Nc1ccc(Cl)c(Cl)c1,–,-5.84,93,2.7,not readily biodegradable,–,–,–
CCCOC(=O)CCC,143,0.775,-95.2,–,–,–,–,–
Cc1nc2cc(Cl)ccc2s1,–,–,69,–,–,–,–,–
CCNCCNCC,146,–,–,–,–,–,–,–
CCNC(=O)OCC,176,–,–,–,–,–,–,–
CC(=O)NC(=O)COC(=O)c1ccccc1,–,–,104,–,–,–,–,–
CCOC(N)=O,185,-0.582,49,–,not readily biodegradable,–,–,–
CCOC(=O)C(CCC(C)C)C(=O)OCC,241,–,–,–,–,–,–,–
C[C@@]12C(=O)OC(=O)[C@]1(C)C1CCC2O1,–,–,218,–,–,–,–,–
CC(C)COC(OCC(C)C)OCC(C)C,223,–,–,–,–,–,–,–
O=C(Cl)c1ccccc1Cl,238,–,-4,–,–,–,–,–
CC1=NN(c2ccc([N+](=O)[O-])cc2)C(=O)C1[N+](=O)[O-] (stereo not given),–,–,116,–,–,–,–,–
CCN(CC)S(=O)(=O)c1ccc(C(=O)O)cc1,–,–,193,–,–,–,–,–
CCn1cccc1,130,–,–,–,–,–,–,–
CNC(=O)OCc1cccc(COC(=O)NC)n1,–,–,136,–,–,–,–,–

Compound,boiling point [°C],log10 vapour pressure (mmHg),melting point [°C],log10 Koc (L/kg),ready biodegradability,log10 Koa,log10 biodegradation half-life (days),log10 Henry constant (atm·m³/mol)
O=C(O)CC=Cc1ccccc1,302,–,87,–,–,–,–,–
C#C[C@]1(O)CC[C@H]2[C@@H]3CCC4=Cc5oncc5C[C@]4(C)[C@H]3CC[C@@]21C,–,–,226,–,–,–,–,–
N#Cc1ccccc1,191,-0.115,-12.7,–,readily biodegradable,4.46,–,–
O=C(O)c1cccc([N+](=O)[O-])c1C(=O)O,–,–,–,–,not readily biodegradable,–,–,–
CCc1cccc(CC)c1,181,0.0531,-83.9,–,not readily biodegradable,–,0.845,–
CC(c1ccccc1)c1ccccc1,273,-1.85,-17.9,–,–,–,–,–
Cc1cc(Cl)ccc1OCC(=O)O,287,-5.23,120,1.73,not readily biodegradable,–,–,–
O=C(Cl)CCl,106,1.4,-22,–,–,–,–,–
Cc1cc(NS(=O)(=O)c2ccc(N)cc2)nc(C)n1,–,–,243,–,–,–,–,–
c1ccc(OCC2CO2)cc1 (stereo not given),245,-2,3.5,–,not readily biodegradable,–,–,–
O=C=Nc1ccc([N+](=O)[O-])cc1,–,–,57,–,–,–,–,–
N#CC(C#N)=C1c2cc([N+](=O)[O-])ccc2-c2c1cc([N+](=O)[O-])cc2[N+](=O)[O-],–,–,267,–,–,–,–,–
CC(C)(C)c1ccncc1,196,–,-41,–,–,–,–,–
CCCCN,78,1.97,-50,1.88,readily biodegradable,3.61,–,-4.76
BrCCCc1ccccc1,220,–,–,–,–,–,–,–
C=Cc1ccc(CC)cc1,192,-0.0246,-49.7,–,not readily biodegradable,–,–,–
CC1CCCC(C)C1O (stereo not given),176,–,32.5,–,–,–,–,–
O=Cc1ccc(O)c([N+](=O)[O-])c1,–,-3.05,141,–,–,–,–,–
CN(C)CCCOc1nn(Cc2ccccc2)c2ccccc12.Cl,–,–,160,–,–,–,–,–
CCOCC(C)O (stereo not given),131,–,–,–,–,–,–,–
COc1cc(O)c2c(=O)c3cc(O)ccc3oc2c1,–,–,266,–,–,–,–,–
c1ccc(-c2ccc3ncccc3c2)cc1,–,–,110,–,–,–,–,–
CC(C(=O)O)c1cccc(C(=O)c2ccccc2)c1 (stereo not given),–,–,94,–,–,–,–,–
COC(=O)c1cccc(C)c1S(=O)(=O)NC(=O)Nc1nc(OCC(F)(F)F)nc(N(C)C)n1,–,–,–,1.84,–,–,–,–
CCN(CC)C(=O)N(CC)CC,209,–,–,–,–,–,–,–
CCCCCCCC(=O)Oc1c(I)cc(C#N)cc1I,–,–,59.5,–,–,–,–,–

Compound,boiling point [°C],log10 vapour pressure (mmHg),melting point [°C],log10 Koc (L/kg),ready biodegradability,log10 Koa,log10 biodegradation half-life (days),log10 Henry constant (atm·m³/mol)
CC(C)(C)N(NC(=O)c1ccccc1)C(=O)c1ccccc1,–,–,178,–,–,–,–,–
COc1ccc(C(=CC(=O)N2CCOCC2)c2ccc(Cl)cc2)cc1OC,–,-8.13,148,–,–,–,–,–
O=C1c2cccc(O)c2C(=O)c2c(O)cccc21,–,–,193,–,–,–,–,–
CC1CC(C)(C)CCC1=O (stereo not given),191,–,–,–,–,–,–,–
C[C@]12C=CC(=O)C=C1CC[C@@H]1[C@@H]2CC[C@@]2(C)[C@H]1CC[C@]2(C)O,–,–,164,–,–,–,–,–
Clc1c(Cl)c(Cl)c2c(oc3c(Cl)c(Cl)c(Cl)c(Cl)c32)c1Cl,–,-11.4,258,–,–,11.9,–,–
C[N+](C)(C)CCOC(=O)CCC(=O)OCC[N+](C)(C)C.[Br-].[Br-],–,–,225,–,–,–,–,–
CC(C)[C@@H](C)/C=C/[C@@H](C)[C@H]1CC[C@H]2/C(=C/C=C3\C[C@@H](O)CC[C@@H]3C)CCC[C@]12C,–,–,126,–,–,–,–,–
CC(C)(C)C(=O)C(C)(C)C,152,–,-25.2,–,–,–,–,–
O=C(O)C(F)(F)C(F)(F)C(F)(F)C(=O)O,–,–,80,–,–,–,–,–
CCOC(=O)[N-]c1c[n+](N2CCOCC2)no1,–,–,140,–,–,–,–,–
CCCCCCCCCc1ccccc1,280,-2.24,-24,–,–,–,–,–
NS(=O)(=O)c1cc2c(cc1Cl)NC(CSCC(F)(F)F)NS2(=O)=O (stereo not given),–,–,206,–,–,–,–,–
Cl[C@H]1CC[C@@H](Cl)CC1,–,–,18,–,–,–,–,–
C=CCC1(C(C)C)C(=O)NC(=O)N(C)C1=O (stereo not given),–,–,56.5,–,–,–,–,–
Cc1cc(NS(=O)(=O)c2ccc(N)cc2)n(-c2ccccc2)n1,–,–,195,–,–,–,–,–
CCC(=O)Nc1ccccc1,222,–,106,–,not readily biodegradable,–,–,–
COc1cccc(C(=O)O)c1O,–,–,151,–,–,–,–,–
CCCCCCCCCCC#N,253,–,–,–,–,–,–,–
C=CC(=C)CCC=C(C)C,167,0.304,–,–,readily biodegradable,–,–,–
O=C(NC(=O)c1c(F)cccc1F)Nc1ccc(CO/N=C(/c2ccc(Cl)cc2)C2CC2)cc1,–,-9.39,–,–,–,–,–,–
N#CC1CC2C=CC1C2 (stereo not given),–,–,13,–,–,–,–,–
COc1ccccc1F,154,–,-39,–,–,–,–,–
CC1=Nc2ccc(Cl)cc2S(=O)(=O)N1,–,–,330,–,–,–,–,–
Cc1cc(O)c(C2CC3CCC2(C)C3(C)C)cc1C (stereo not given),–,–,95,–,–,–,–,–
c1ccc(CSSCc2ccccc2)cc1,–,–,71.5,–,–,–,–,–

Compound,boiling point [°C],log10 vapour pressure (mmHg),melting point [°C],log10 Koc (L/kg),ready biodegradability,log10 Koa,log10 biodegradation half-life (days),log10 Henry constant (atm·m³/mol)
BrC(Br)Br,149,0.732,8,2.06,not readily biodegradable,–,–,-3.27
OCC(F)(F)C(F)(F)C(F)(F)CO,–,–,79.5,–,–,–,–,–
O=C(O)c1ccccc1[N+](=O)[O-],–,–,148,–,readily biodegradable,–,–,–
c1ccc(-c2ncc[nH]2)cc1,340,–,149,–,–,–,–,–
CCOCC(=O)O,206,–,–,–,–,–,–,–
CCCCCOC=O,130,–,-73.5,–,–,–,–,–
Brc1cnc2ccccc2c1,275,–,13.3,–,–,–,–,–
OCCOc1ccc(N=Nc2ccccc2)cc1,–,-7.67,–,–,–,–,–,–
ClCc1cccc(Cl)c1,216,–,–,–,–,–,–,–
Fc1ccc(I)cc1,183,–,-27,–,–,–,–,–
C=CCCCCCC,121,1.24,-102,–,–,3.35,–,–
CC(C)CC(O)C(C)C (stereo not given),158,–,–,–,–,–,–,–
CCC(C)c1cc([N+](=O)[O-])cc([N+](=O)[O-])c1O (stereo not given),332,–,40,2.7,not readily biodegradable,–,–,–
CCCC(C)Br (stereo not given),117,1.33,-95.5,–,–,–,–,–
C[N+]1(C)CCCCC1.[Cl-],–,–,223,–,–,–,–,–
COP(=S)(OC)Oc1cc(Cl)c(Cl)cc1Cl,–,-4.12,41,–,–,–,–,–
Cc1cc(C)c(Cl)c(O)c1Cl,–,–,87.5,–,–,–,–,–
Oc1ccc2ccccc2c1/N=N/c1ccc(/N=N\c2ccccc2)cc1,–,–,195,–,–,–,–,–
O=S1CCCC1,236,–,–,–,–,–,–,–
Cc1ccc(CCN)cc1,214,–,–,–,–,–,–,–
CCc1cc(C)cc(O)c1,236,-2.06,51.6,–,–,–,–,–
CCCCCCCC/C=C\CCCCCCCCOC(=O)CCCCC(=O)OCCCCCCCC/C=C\CCCCCCCC,–,–,–,–,readily biodegradable,–,–,–
CCCCC(C)C(C)CC (stereo not given),163,–,–,–,–,–,–,–
Fc1cc(F)c(F)nc1F,102,–,–,–,–,–,–,–

# Same assay, conditions: fish
Compound,log10 BCF,log10 biotransformation half-life (days)
CON(C)C(=O)Nc1ccc(Cl)c(Cl)c1,1.25,-0.97
O=C(O)c1cccc([N+](=O)[O-])c1C(=O)O,0.72,-1.57
CCc1cccc(CC)c1,2.73,0.09
C=Cc1ccc(CC)cc1,2.69,–
Clc1c(Cl)c(Cl)c2c(oc3c(Cl)c(Cl)c(Cl)c(Cl)c32)c1Cl,2.89,1.22
BrC(Br)Br,1.13,-0.7
CCC(C)c1cc([N+](=O)[O-])cc([N+](=O)[O-])c1O (stereo not given),1.79,–
COP(=S)(OC)Oc1cc(Cl)c(Cl)cc1Cl,3.58,0.95
